In PMC5514153, “Targeting PTPRZ inhibits stem cell-like properties and tumorigenicity in glioblastoma cells” (Scientific Reports, 2017):

Key:
PTPN1 F191V = assay: Inhibitor sensitivity of point mutant PTPN1 F191V; type: biochemical, human; conditions: at 10 µM
Description: Figure 5 Structural basis for PTPRZ inhibition of NAZ2329. (A) An enlarged view of the X-ray structure of human PTPRZ1-D1 complexed with NAZ2329 (PDB ID: 5H08) (left), X-ray structure of the apo (open) form of PTPRZ1-D1 (PDB ID: 5AWX, ref. [6], middle) and a computer-modeled structure of the closed form of PTPRZ1-D1 complexed with a competitive inhibitor, SCB4380 (ref. [6], right), are shown. PTPRZ1-D1 is shown as a gray surface representation, in which Cys1933 at the active site and Val-1911 at the bottom of the allosteric pocket are indicated in red and yellow, respectively. Inhibitors are colored according to the atomic species in a stick figure representation as follows: oxygen (red), nitrogen (blue), sulfur (yellow), and carbon (green). The bottom figures show the conformation of the WPD loop (orange) as cartoon representations, in which Asp1901 and Cys1933 are indicated by orange and red spheres, respectively. Side chains of Arg1939 at the active site, Met1902 in the WPD loop, and Val-1911 at the bottom of the allosteric binding area are also shown in the stick representation. (B) LigPlot representation of the NAZ2329 interaction with PTPRZ1-D1. The predicted hydrogen bonds (broken black lines) and residues (red spoked arcs) involved in the hydrophobic interaction are shown. […]

[1] = system: oligodendrocyte precursor OL1 cells; assay: OL1 oligodendrocyte differentiation assay; type: cell-based, mouse; conditions: 10 days in differentiation media
Method: Figure 6 Effects of NAZ2329 treatment on oligodendrocyte differentiation. Mouse oligodendrocyte-lineage OL1 cells were cultured in differentiation media containing the indicated concentrations of NAZ2329. After 10 days, cells were fixed with formalin and stained with anti-NG2 proteoglycan (oligodendrocyte precursor cells, red) and anti-MBP (oligodendrocyte, green) antibodies, in conjunction with the DAPI-labeling of nuclei (blue). Scale bars, 100 µm.
The preparation of mouse oligodendrocyte-lineage OL1 cells was described previously. […] On the 10th day of the culture, differentiation from oligodendrocyte precursor cells to oligodendrocytes was assessed was described previously[14]–[16]. Briefly, cells were fixed and stained with anti-NG2 (a specific marker for oligodendrocyte precursor cells) and anti-MBP (a marker for matured oligodendrocytes), and the observed with a standard fluorescence microscope (Biozero BZ8000, Keyence). Differentiation from oligodendrocyte precursor cells to oligodendrocytes was expressed as the ratio of MBP-positive cells to NG2-positive cells.

C6 cells = assay: Sphere formation, SOX2 expression and self-renewal, C6 cells; type: cell-based, rat
Method: Figure 7 Cellular effects of NAZ2329 on the malignant phenotypes of C6 cells. (A) Phosphorylation of paxillin at Tyr-118. C6 cells were incubated with NAZ2329 for the indicated periods. Immunoprecipitated paxillin was analyzed by Western blotting using anti-pY118-paxillin and anti-paxillin. Blots are representative of five independent cultures. […] (B) Cell proliferation assay. C6 cells were incubated for 48 h with NAZ2329 in normal medium containing 2% FBS. […] (C) Boyden chamber assay. Cells were allowed to migrate for 3 h. DAPI-stained nuclei are shown before (total) and after (migrated) the removal of cells remaining in the top chamber. Scale bars, 100 µm. […] (D,E) Sphere formation (D) and SOX2 expression (E). C6 cells were cultured in CSC medium for 7 days with indicated concentrations of NAZ2329. Images are representative of five independent cultures. Scale bars, 100 µm. […] (F) Self-renewal of C6 spheres. C6 spheres were initially developed in CSC medium for 7 days, followed by an incubation with NAZ2329 in CSC medium for 5 days. Images are representative of five independent cultures. Scale bars, 100 µm. […] Full-length blots and gels are presented in Supplementary Fig. S7.
Cells were inoculated at 5 × 10^3 cells per 96-well uncoated polystyrene plate (# 9018, Corning) or 5 × 10^4 cells per 35-mm plastic petri dish (#351008, Corning), and cultured in a serum-free medium containing DMEM/F12 with 1x B27 supplement (#17504044, Thermo Fisher Scientific), EGF (20 ng/ml), and basic fibroblast growth factor (bFGF, 20 ng/ml, #064-05381, Wako pure chemical). After a 7-day culture, cells were fixed with 10% neutral formalin and pictured under a conventional microscope. The number of spheroids of approximately 70 µm in diameter were counted manually using Adobe Photoshop CS6 (Adobe).

CCOc1ccc(C(F)(F)F)cc1CSc1ccsc1C(=O)NS(=O)(=O)c1ccccc1 [NAZ2329]
change in sensitivity of F191V mutant vs wild-type PTPN1 (more sensitive) (PTPN1 F191V): ~ 2 fold | differentiation of OL1 cells to mature oligodendrocytes (MBP-positive/NG2-positive ratio) [1]: dose-dependently induced the differentiation | SOX2 expression (C6 cells; C6 cells, CSC medium, 7 days): decrease in SOX2 expression | sphere formation (C6 cells; C6 cells, CSC medium, 7 days): dose-dependently inhibited sphere formation | self-renewal of sphere-forming cells (C6 cells; C6 spheres, 5 days with compound): suppressed self-renewal
